Results: ChEMBL document CHEMBL4049458, “Structure-Based Optimization of Thiophene[3,2-d]pyrimidine Derivatives as Potent HIV-1 Non-nucleoside Reverse Transcriptase Inhibitors with Improved Potency against Resistance-Associated Variants” (J Med Chem, 2017)

Columns and labels:
[1] = Selectivity index, ratio of CC50 for human MT4 cells to EC50 for reverse transcriptase F227L/V106A double mutant in human MT4 cells infected HIV1 3B
[2] = Selectivity index, ratio of CC50 for human MT4 cells to EC50 for reverse transcriptase E138K mutant in human MT4 cells infected HIV1 3B
[3] = tested on: Human immunodeficiency virus 2; assay: Antiviral activity against HIV2 ROD harboring reverse transcriptase infected in human MT4 cells assessed as protection against virus induced cytotoxicity after 5 days by MTT assay; format: functional, cell-based; conditions: Human immunodeficiency virus 2, ISOLATE ROD, MT4, 120 h
[4] = Selectivity index, ratio of CC50 for human MT4 cells to EC50 for reverse transcriptase Y181C mutant in human MT4 cells infected HIV1 3B
[5] = Selectivity index, ratio of CC50 for human MT4 cells to EC50 for reverse transcriptase K103N mutant in human MT4 cells infected HIV1 3B
[6] = tested on: Human immunodeficiency virus 1; assay: Antiviral activity against wild type HIV1 3B harboring reverse transcriptase infected in human MT4 cells assessed as protection against virus induced cytotoxicity after 5 days by MTT assay; format: functional, cell-based; conditions: Human immunodeficiency virus 1, 3B, MT4, 120 h
[7] = Cytotoxicity against human MT4 cells assessed as cell viability after 5 days by MTT assay; format: cell-based
[8] = Selectivity index, ratio of CC50 for human MT4 cells to EC50 for reverse transcriptase L100I mutant in human MT4 cells infected HIV1 3B
[9] = Selectivity index, ratio of CC50 for human MT4 cells to EC50 for wild type HIV1 3B harboring reverse transcriptase infected in human MT4 cells
[10] = Selectivity index, ratio of CC50 for human MT4 cells to EC50 for HIV1 RES056 reverse transcriptase K103N/Y181C double mutant infected in human MT4 cells
[11] = Selectivity index, ratio of CC50 for human MT4 cells to EC50 for reverse transcriptase Y188L mutant in human MT4 cells infected HIV1 3B

Structure (SMILES)	selectivity ratio ([1]; MT4 cells)	selectivity ratio ([2]; MT4 cells)	EC50 [3] [nM]	selectivity ratio ([4]; MT4 cells)	selectivity ratio ([5]; MT4 cells)	EC50 [6] [nM]	CC50 at 120 h [7] [nM]	selectivity ratio ([8]; MT4 cells)	selectivity ratio ([9]; MT4 cells)	selectivity ratio ([10]; MT4 cells)	selectivity ratio ([11]; MT4 cells)	selectivity ratio [1]	selectivity ratio [2]	selectivity ratio [4]	selectivity ratio [5]	selectivity ratio [8]	selectivity ratio [9]	selectivity ratio [10]	selectivity ratio [11]
Cc1cc(/C=C/C#N)cc(C)c1Oc1nc(NC2CCN(Cc3ccc([N+](=O)[O-])cc3)CC2)nc2ccsc12	33	86	> 3520	115	365	7.73	3520	134	456	32	30								
Cc1cc(C#N)cc(C)c1Oc1nc(NC2CCN(Cc3cccc(C(N)=O)c3)CC2)nc2sccc12	> 1930	> 5610	> 48700	> 5300	> 5490	5.17	> 48700	> 4630	> 9420	> 10	> 2870								
Cc1ccc(CN2CCC(Nc3nc(Oc4c(C)cc(/C=C/C#N)cc4C)c4sccc4n3)CC2)cc1	22	90	> 2910	98	258	8.91	2910	91	326	20	21								
Cc1cc(/C=C/C#N)cc(C)c1Oc1nc(NC2CCN(Cc3ccccc3F)CC2)nc2ccsc12	61	74	> 2480	83	361	6.34	2480	32	392	14	18								
Cc1cc(/C=C/C#N)cc(C)c1Oc1nc(NC2CCN(Cc3ccncc3)CC2)nc2ccsc12	322	560	> 4780	825	859	3.34	4780	752	1430	162	148								
Cc1cc(C#N)cc(C)c1Oc1nc(NC2CCC(NCc3cccc(C(N)=O)c3)CC2)nc2ccsc12 (stereo unspecified)						135	9210												
Cc1cc(/C=C/C#N)cc(C)c1Oc1nc(NC2CCN(Cc3cccc(C(N)=O)c3)CC2)nc2ccsc12	448	551	> 3530	563	1190	3.26	3530	689	1080	81	129								
Cc1cc(/C=C/C#N)cc(C)c1Oc1nc(NC2CCN(Cc3cccc(C#N)c3)CC2)nc2ccsc12	107	101	> 2830	105	470	4.43	2820	352	639	24	55								
Cc1cc(/C=C/C#N)cc(C)c1Oc1nc(NC2CCN(Cc3cccc(Br)c3)CC2)nc2ccsc12	85	61	> 7950	62	269	25.8	7950	279	308	37	48								
Cc1ccnc2c1NC(=O)c1cccnc1N2C1CC1 [NEVIRAPINE]							> 15000												
Cc1cc(C#N)cc(C)c1Oc1nc(NC2CCC(NCc3ccc(C#N)cc3)CC2)nc2ccsc12 (stereo unspecified)	< 1	< 1	> 5150	< 1	< 1	3810	5150	< 1	1.3	< 1	≤ 1								
Cc1cc(/C=C/C#N)cc(C)c1Oc1nc(NC2CCN(Cc3cccc(Cl)c3)CC2)nc2ccsc12	72	37	> 4880	69	164	25.9	4880	163	188	33	29								
CCOC(=O)c1ccc(CN2CCC(Nc3nc(Oc4c(C)cc(/C=C/C#N)cc4C)c4sccc4n3)CC2)cc1	≥ 42	≥ 96	> 3610	≥ 110	≥ 273	14.6	≥ 3610	≥ 134	≥ 247	≥ 22	≥ 22								
Cc1cc(C#N)cc(C)c1Oc1nc(NC2CCCN(Cc3ccc(S(N)(=O)=O)cc3)C2)nc2ccsc12 (stereo unspecified)						> 1170	1170												
Cc1cc(C#N)cc(C)c1Oc1nc(NC2CCC(NCc3cccc(C(F)(F)F)c3)CC2)nc2ccsc12 (stereo unspecified)	< 1	< 1	> 707	< 1	< 1	174	707	< 1	4	< 1	< 1								
CCOC(=O)C1CN(Cc2ccc(S(N)(=O)=O)cc2)CCC1Nc1nc(Oc2c(C)cc(C#N)cc2C)c2sccc2n1 (stereo unspecified)	3	7	> 4240	23	18	134	4240	11	32	≤ 5	< 1								
Cc1cc(C#N)cc(C)c1Oc1nc(NC2CCC(NCc3ccccc3)CC2)nc2ccsc12 (stereo unspecified)	3	3	> 2970	< 1	4	230	2970	3	13	< 1	< 1								
Cc1cc(/C=C/C#N)cc(C)c1Oc1nc(NC2CCN(Cc3ccc(Cl)cc3)CC2)nc2ccsc12	37	26	> 3980	51	159	25.6	3980	93	156	20	22								
Cc1cc(C#N)cc(C)c1Oc1nc(NC2CCN(Cc3ccc(S(N)(=O)=O)cc3)CC2C(=O)O)nc2ccsc12 (stereo unspecified)	11	8	> 27600	8	33	723	27600	17	38	< 1	9								
CCOC(=O)c1ccc(CN2CCC(Nc3nc(Oc4c(C)cc(C#N)cc4C)c4ccsc4n3)CC2)cc1	> 63	> 463	> 230000	> 207	> 625	98.9	> 230000	> 160	> 2330	> 6	> 124								
Cc1cc(/C=C/C#N)cc(C)c1Oc1nc(NC2CCN(Cc3ccccn3)CC2)nc2ccsc12	144	517	> 3850	418	724	3.36	3850	210	1150	32	92								
COC(=O)c1ccc(CN2CCC(Nc3nc(Oc4c(C)cc(C#N)cc4C)c4ccsc4n3)CC2)cc1	109	805	> 28600	316	982	5.26	28600	214	5450	19	181								
O=C1Nc2ccc(Cl)cc2[C@@](C#CC2CC2)(C(F)(F)F)O1 [EFAVIRENZ]							> 6330												
Cc1cc(/C=C/C#N)cc(C)c1Oc1nc(NC2CCN(Cc3ccc(C(N)=O)cc3)CC2)nc2ccsc12						1.26	≥ 3150												
Cc1cc(C#N)cc(C)c1Oc1nc(NC2CCC(NCc3ccc(C(N)=O)cc3)CC2)nc2ccsc12 (stereo unspecified)						121	7720												
Cc1cc(C#N)cc(C)c1Oc1nc(NC2CCCN(Cc3ccc(C(N)=O)cc3)C2)nc2ccsc12 (stereo unspecified)						3220	19500												
Cc1cn([C@H]2C[C@H](N=[N+]=[N-])[C@@H](CO)O2)c(=O)[nH]c1=O [ZIDOVUDINE]						5.81	> 7480					> 1560	> 1030	> 1120	> 1430	> 1990	625	> 675	> 1180
